In US20080119477A1, “N-Biaryl and N-Arylheteroaryl Piperazine Derivatives as Modulators of the 5Ht2c Receptor Useful For the Treatment of Disorders Related Thereto” (priority 2004, published 2008):

How the values were obtained:
[1] = target: T1, human 5HT2C receptor (Homo sapiens, UniProt P28335); experiment: Intracellular IP3 accumulation assay, 5HT2C; format: cell-based; conditions: HEK293 cells transfected with human 5HT2C receptor cDNA; read-out: 5HT2C (EC50) IP Accumulation Assay
T1 construct: expressed in transfected cells; host or cells: HEK293
T1 sequence (P28335 33-458): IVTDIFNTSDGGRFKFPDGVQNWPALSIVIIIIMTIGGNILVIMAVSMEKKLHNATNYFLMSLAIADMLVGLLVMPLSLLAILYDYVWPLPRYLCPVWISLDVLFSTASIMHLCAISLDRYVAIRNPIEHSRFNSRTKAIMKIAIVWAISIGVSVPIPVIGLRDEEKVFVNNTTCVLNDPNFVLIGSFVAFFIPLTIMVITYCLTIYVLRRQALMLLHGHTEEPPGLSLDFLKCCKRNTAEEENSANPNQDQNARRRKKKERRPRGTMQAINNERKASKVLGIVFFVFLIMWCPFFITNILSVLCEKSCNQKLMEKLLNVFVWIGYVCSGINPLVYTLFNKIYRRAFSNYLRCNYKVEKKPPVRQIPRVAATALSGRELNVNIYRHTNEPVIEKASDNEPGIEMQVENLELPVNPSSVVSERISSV
Method: Intracellular IP3 Accumulation Assay:
HEK293 cells were transfected in 15 cm sterile dishes with or without (control) 16 ug of human 5HT2C receptor cDNA [for example see, Saltzman, A. G., et al. Biochem. Biophys. Res. Commun. 181, 1469-1478 (1991)] using 25 ul of lipofectamine. Cells were then incubated for 3-4 hours at 37° C./5% CO2 and then transfection media was removed and replaced with 100 ul of DMEM. Cells were then plated onto 100 cm sterile dishes. The next day cells were plated into 96 well PDL microtiter plates at a density of 55 K/0.2 mL. Six hours latter, media was exchanged with [^3H]inositol (0.25 uCi/well) in inositol free DMEM and plates were incubated at 37° C./5% CO2 overnight. The next day, wells were aspirated and 200 ul of DMEM containing test compound, 10 uM pargyline, and 10 mM LiCl was added to appropriate wells. Plates were then incubated at 37° C./5% CO2 for three hours followed aspiration and by addition of fresh ice cold stop solution (1M KOH, 19 mM Na-borate, 3.8 mM EDTA) to each well. Plates were kept on ice for 5-10 min and the wells were neutralized by addition of 200 ul of fresh ice cold neutralization solution (7.5% HCl). Plates were then frozen until further processing is desired. The lysate was then transferred into 1.5 mL Eppendorf tubes and 1 mL of chloroform/methanol (1:2) was added/tube. […]

[2] = target: 5HT2A receptor (Homo sapiens, UniProt P28223); experiment: EC50 against the 5HT2A receptor (selectivity); format: cell-based
Sequence of 5HT2A receptor (P28223 whole entry): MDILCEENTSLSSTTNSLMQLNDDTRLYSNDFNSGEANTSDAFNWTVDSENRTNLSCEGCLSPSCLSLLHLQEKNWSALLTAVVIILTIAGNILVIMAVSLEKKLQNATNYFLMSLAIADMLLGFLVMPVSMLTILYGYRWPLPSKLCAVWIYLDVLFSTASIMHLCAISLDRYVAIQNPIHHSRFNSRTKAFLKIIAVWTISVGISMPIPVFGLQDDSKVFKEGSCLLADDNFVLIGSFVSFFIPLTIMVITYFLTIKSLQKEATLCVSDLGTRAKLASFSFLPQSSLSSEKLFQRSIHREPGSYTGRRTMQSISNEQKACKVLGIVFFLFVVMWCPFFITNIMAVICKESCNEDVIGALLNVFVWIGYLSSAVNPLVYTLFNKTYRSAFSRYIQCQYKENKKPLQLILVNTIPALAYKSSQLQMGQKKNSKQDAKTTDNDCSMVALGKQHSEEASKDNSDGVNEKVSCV

[3] = target: 5HT2B receptor (Homo sapiens, UniProt P41595); experiment: Activity against the 5HT2B receptor (selectivity); format: cell-based
Sequence of 5HT2B receptor (P41595 whole entry): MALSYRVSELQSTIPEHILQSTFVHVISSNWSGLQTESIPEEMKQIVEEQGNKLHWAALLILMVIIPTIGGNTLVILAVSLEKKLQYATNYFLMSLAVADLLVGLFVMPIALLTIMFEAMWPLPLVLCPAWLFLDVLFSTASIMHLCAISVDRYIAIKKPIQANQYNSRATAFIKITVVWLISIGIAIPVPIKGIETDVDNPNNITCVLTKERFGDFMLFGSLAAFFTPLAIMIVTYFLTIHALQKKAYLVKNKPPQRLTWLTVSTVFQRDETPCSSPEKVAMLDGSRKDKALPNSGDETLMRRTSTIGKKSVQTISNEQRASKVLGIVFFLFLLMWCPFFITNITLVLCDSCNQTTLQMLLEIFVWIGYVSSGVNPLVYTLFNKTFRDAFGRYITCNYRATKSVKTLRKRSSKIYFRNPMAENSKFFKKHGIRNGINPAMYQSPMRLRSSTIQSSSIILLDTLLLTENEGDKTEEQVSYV

[4] = tested on: amyloid precursor protein (APPs) secretion; conditions: guinea pigs, repeat administration; cited from earlier work

Row | Structure (SMILES) | EC50 [1] | EC50 [2] | activity against the 5HT2B receptor [3] | amyloid precursor protein (APPs) secretion [4] | levels of Aβ production in vivo [4]
1 | Fc1cc(-c2ccsc2)cc(N2CCNCC2)c1 [Compound 1, 1-(3-Fluoro-5-thiophen-3-yl-phenyl)-piperazine] | 7 nM | > 10000 nM | essentially inactive | – | –
2 | C[C@H](N)Cc1cccc(C(F)(F)F)c1 [dexnorfenfluramine] | – | – | – | stimulated | reducing levels
3 | Fc1ccc(-c2ccccc2)cc1N1CCNCC1 [Compound 10, 1-(4-Fluoro-biphenyl-3-yl)-piperazine] | 21 nM | – | essentially inactive | – | –
